# Assay results reported in patent publication US20210283082A1, “PHARMACEUTICAL COMPOSITION FOR PREVENTION OR TREATMENT OF KIDNEY DAMAGE” (National University Corporation Kanazawa University, priority 2018, published 2021).
# “Also recorded” adds a separate entry of the source.
# Tests used:
# [1] = tested on: mice treated by renal ischemia reperfusion; test: Renal ischemia reperfusion, F4/80 immunostaining of kidney tissue (macrophages); assay type: in vivo; settings: day 5 after ischemia reperfusion; 20 mM D-serine water vs water
# Experimental: The animals were reared with free access to water and feed under conditions with an SPF environment and 12-hour light-dark cycling. C57BL/6J mice were purchased from Clea Japan, Inc. (Osaka). Male 12- to 16-week-old mice were treated by renal ischemia reperfusion (hereunder also referred to as “I/R”). The renal pedicles were clamped with a non-traumatic clip (Natsume Seisakusho, Tokyo) under pentobarbital anesthesia to elicit ischemia. The clips were released after 40 minutes. The body temperature was kept at 37° C. during treatment. The mice were reared with free access to water (control) or 20 mM D-serine-containing water, prior to 14 days after IR treatment. On day 0, 2, 5, 7 and 10 after IR treatment, the kidney tissues were sampled. Renal samples harvested on day 0 and day 5 were fixed with 10% neutral buffered formalin and supplied for immunostaining using F4/80 antibody (Invitrogen, catalog #: MF48,000). F4/80 is a protein expressed specifically by macrophages, and it allows visualization of macrophages in kidney tissue. In the water-administered control group, cells stained with F4/80 were found accumulated in kidney tissue (day 5), but in the D-serine-administered group such cellular accumulation was minimal (FIG. 3(A)). The regions stained with F4/80 in the kidney tissue harvested on day […] were measured and shown (FIG. 3(B)).
# [2] = Blood D-serine concentration after free provision of 20 mM D-serine water; assay type: in vivo; settings: mice reared with free access to 20 mM D-serine-containing water
# Experimental: The animals were reared with free access to water and feed under conditions with an SPF environment and 12-hour light-dark cycling. C57BL/6J mice were purchased from Clea Japan, Inc. (Osaka).
# The mice were reared in an environment allowing free access to water (control) or 20 mM D-serine-containing water, and the blood D-serine concentrations were measured. The blood D-serine concentrations were determined by total amino acid optical isomer analysis using a D, L-amino acid simultaneous high sensitivity analysis system developed by Zaitsu et al. (Japanese Patent No. 4291628). The details regarding the analysis conditions for each amino acid are described in Miyoshi Y. et al., J. Chromatogr. B, 879:3184(2011) and Sasabe, J. et al., Proc. Natl. Acad. Sci. U.S.A., 109:627(2012). In brief, serum and urine amino acids were fluorescently derivatized with NBD-F (4-fluoro-7-nitro-2,1,3-benzooxadiazole, Tokyo Kasei Kogyo Co., Ltd.) and supplied to an HPLC system (NANOSPACE SI-2 Series, product of Shiseido Corp.). NBD-amino acids separated two-dimensionally using an in-house reversed-phase column with an octadecyl group as the stationary phase and a chiral column with an amino acid derivative as the stationary phase, were quantitatively analyzed after detection at an excitation wavelength of 470 nm and a detection wavelength of 530 nm. […]
# [3] = tested on: rats; settings: intraperitoneal, 800 mg/kg (NPL 3), 400 mg/kg (NPL 4) or 250 mg/kg (NPLs 5 and 6); cited from earlier work
# [4] = tested on: mice treated by renal ischemia reperfusion; test: Renal ischemia reperfusion, PAS staining and ATN score of kidney tissue sections; assay type: in vivo
# Experimental: The animals were reared with free access to water and feed under conditions with an SPF environment and 12-hour light-dark cycling. C57BL/6J mice were purchased from Clea Japan, Inc. (Osaka). Male 12- to 16-week-old mice were treated by renal ischemia reperfusion (hereunder also referred to as “I/R”). The renal pedicles were clamped with a non-traumatic clip (Natsume Seisakusho, Tokyo) under pentobarbital anesthesia to elicit ischemia. The clips were released after 40 minutes. The body temperature was kept at 37° C. during treatment. The mice were reared with free access to water (control) or 20 mM D-serine-containing water, prior to 14 days after IR treatment. On day 0, 2, 5, 7 and 10 after IR treatment, the kidney tissues were sampled. Kidneys sampled on day 0, 2 and 10 were fixed with 10% neutral buffered formalin and embedded in paraffin, and then stained with periodic acid-Schiff (PAS staining). The stained slices were photographed with a bright-field microscope (FIG. 1). Debris stained with PAS (skin boundary) or brush border (skin boundary and cortical region) were quantitatively evaluated in at least 10 different locations. Renal tubule necrosis (A), intraluminal debris (B) and brush border region (C) were evaluated by ATN score (0: none, 1: mild, 2: moderate, 3: severe), with the results shown in FIGS. 2(A) to (C). Sample evaluation was carried out blind.
smiles,measurement,setting,value
N[C@H](CO)C(=O)O [D-serine],F4/80 staining of kidney tissue (accumulation of macrophages and monocytes),[1],little change in staining intensity; also recorded: minimal
same,blood D-serine concentration,[2],100 nmol/mL
same,nephrotoxicity,[3],causes nephrotoxicity
same,"grades of necrosis, intraluminal debris and brush border region (ATN score)","[4]; 0, 2, 5, 7 and 10 days after ischemia reperfusion, compared to the group given water",improved
same,PAS staining intensity of kidney tissue section (accumulation of inflammatory cells such as neutrophils and eosinophils),"[4]; day 10 after ischemia reperfusion, 20 mM D-serine water vs water",no such change in staining intensity
same,protecting effect on the kidneys,"[4]; mice, drinking water containing 20 mM D-serine, blood concentration 100 nmol/mL",able to exhibit a protecting effect on the kidneys
